Legend:
Selumetinib = compound: Cn1cnc2c(F)c(Nc3ccc(Br)cc3Cl)c(C(=O)NOCCO)cc21 [Selumetinib]; conditions: max 10 µM
In short: (§1)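 Cancer cell lines were seeded into 1536-well plates in 7.5 μl medium (DMEM/F12 or RPMI, 10% FBS), held 24 hours at 37°C and 5% CO2, and dosed for 72 hours with final DMSO typically 0.2%. Luminescence from CellTiter-Glo 2.0, scaled between blank-well and DMSO-well means, served as viability. The single-agent IC50 was obtained from dose-response fits with a non-linear mixed effects model, each fit being a two-parameter logistic curve.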

Savolitinib = compound: C[C@@H](c1ccc2nccn2c1)n1nnc2ncc(-c3cnn(C)c3)nc21 [Savolitinib]; conditions: max 1 µM
In short: as §1

Crizotinib = compound: C[C@@H](Oc1cc(-c2cnn(C3CCNCC3)c2)cnc1N)c1c(Cl)ccc(F)c1Cl [Crizotinib]; conditions: max 10 µM
In short: as §1

Taselisib = compound: Cc1nc(-c2cn3c(n2)-c2ccc(-c4cnn(C(C)(C)C(N)=O)c4)cc2OCC3)n(C(C)C)n1 [Taselisib]; conditions: max 10 µM
In short: as §1

Dasatinib = compound: CC1=C(C(=CC=C1)Cl)NC(=O)C2=CN=C(S2)NC3=CC(=NC(=N3)C)N4CCN(CC4)CCO [Dasatinib]; conditions: max 2 µM
In short: as §1

SG3199 = compound: CC1=CN2[C@@H](C1)C=NC3=CC(=C(C=C3C2=O)OC)OCCCCCOC4=C(C=C5C(=C4)N=C[C@@H]6CC(=CN6C5=O)C)OC [SG3199]; conditions: max 0.001 µM
In short: as §1

SRA737 = compound: N#Cc1cnc(Nc2cc(NC[C@H]3CNCCO3)c(C(F)(F)F)cn2)cn1 [SRA737]; conditions: max 10 µM
In short: as §1

Olaparib = compound: O=C(c1cc(Cc2n[nH]c(=O)c3ccccc23)ccc1F)N1CCN(C(=O)C2CC2)CC1 [Olaparib]; conditions: max 10 µM
In short: as §1

5-Fluorouracil = compound: O=c1[nH]cc(F)c(=O)[nH]1 [5-Fluorouracil]; conditions: max 20 µM
In short: as §1

Prexasertib = compound: COc1cccc(OCCCN)c1-c1cc(Nc2cnc(C#N)cn2)n[nH]1 [Prexasertib]; conditions: max 1 µM
In short: as §1

AZD5363 = compound: C1CN(CCC1(C(=O)N[C@@H](CCO)C2=CC=C(C=C2)Cl)N)C3=NC=NC4=C3C=CN4 [AZD5363]; conditions: max 10 µM
In short: as §1

AZD2811 = compound: CCN(CCO)CCCOc1ccc2c(Nc3cc(CC(=O)Nc4cccc(F)c4)[nH]n3)ncnc2c1 [AZD2811]; conditions: max 1 µM
In short: as §1

Etoposide = compound: COc1cc([C@@H]2c3cc4c(cc3[C@@H](O[C@@H]3O[C@@H]5CO[C@@H](C)O[C@H]5[C@H](O)[C@H]3O)[C@H]3COC(=O)[C@H]23)OCO4)cc(OC)c1O [Etoposide]; conditions: max 10 µM
In short: as §1

Palbociclib = compound: CC(=O)c1c(C)c2cnc(Nc3ccc(N4CCNCC4)cn3)nc2n(C2CCCC2)c1=O [Palbociclib]; conditions: max 10 µM
In short: as §1

Trametinib = compound: CC(=O)Nc1cccc(-n2c(=O)n(C3CC3)c(=O)c3c(Nc4ccc(I)cc4F)n(C)c(=O)c(C)c32)c1 [Trametinib]; conditions: max 1 µM
In short: as §1

Doxorubicin = compound: COc1cccc2c1C(=O)c1c(O)c3c(c(O)c1C2=O)C[C@@](O)(C(=O)CO)C[C@@H]3O[C@H]1C[C@H](N)[C@H](O)[C@H](C)O1 [Doxorubicin]; conditions: max 1 µM
In short: as §1

MK-2206 = compound: NC1(c2ccc(-c3nc4ccn5c(=O)[nH]nc5c4cc3-c3ccccc3)cc2)CCC1 [MK-2206]; conditions: max 10 µM
In short: as §1

AZD6738 = compound: C[C@@H]1COCCN1C2=NC(=NC(=C2)C3(CC3)[S@](=N)(=O)C)C4=C5C=CNC5=NC=C4 [AZD6738]; conditions: max 10 µM
In short: as §1

Gefitinib = compound: COc1cc2ncnc(Nc3ccc(F)c(Cl)c3)c2cc1OCCCN1CCOCC1 [Gefitinib]; conditions: max 10 µM
In short: as §1

Alisertib = compound: COc1cc(Nc2ncc3c(n2)-c2ccc(Cl)cc2C(c2c(F)cccc2OC)=NC3)ccc1C(=O)O [Alisertib]; conditions: max 10 µM
In short: as §1

AZD8186 = compound: C[C@@H](Nc1cc(F)cc(F)c1)c1cc(C(=O)N(C)C)cc2c(=O)cc(N3CCOCC3)oc12 [AZD8186]; conditions: max 10 µM
In short: as §1

Lapatinib = compound: CS(=O)(=O)CCNCc1ccc(-c2ccc3ncnc(Nc4ccc(OCc5cccc(F)c5)c(Cl)c4)c3c2)o1 [Lapatinib]; conditions: max 10 µM
In short: as §1

AZD5153 = compound: COc1nnc2ccc(N3CCC(c4ccc(OCCN5CCN(C)C(=O)[C@H]5C)cc4)CC3)nn12 [AZD5153]; conditions: max 1 µM
In short: as §1

AZD1775 = compound: C=CCn1c(=O)c2cnc(Nc3ccc(N4CCN(C)CC4)cc3)nc2n1-c1cccc(C(C)(C)O)n1 [AZD1775]; conditions: max 3 µM
In short: as §1

Carboplatin = compound: C1CC(C1)(C(=O)[O-])C(=O)[O-].N.N.[Pt+2] [Carboplatin]; conditions: max 10 µM
In short: as §1

AZD0156 = compound: CN(C)CCCOc1ccc(-c2ccc3ncc4c(c3c2)n(C2CCOCC2)c(=O)n4C)cn1 [AZD0156]; conditions: max 3 µM
In short: as §1

AZD7648 = compound: Cc1cc2ncnn2cc1Nc1ncc2c(n1)n(C1CCOCC1)c(=O)n2C [AZD7648]; conditions: max 10 µM
In short: as §1

AZD5991 = compound: Cc1c2c(nn1C)CSCc1cc(n(C)n1)CSc1cc(c3ccccc3c1)OCCCc1c(C(=O)O)n(C)c3c-2c(Cl)ccc13 [AZD5991]; conditions: max 1 µM
In short: as §1

AZD4320 = compound: CN(CC[C@H](CSC1=CC=CC=C1)NC2=C(C=C(C=C2)S(=O)(=O)NC(=O)C3=CC=C(C=C3)N4CCC(CC4)[C@H](C5=CC=CC=C5C6=CC=C(C=C6)Cl)O)S(=O)(=O)C(F)(F)F)CCO [AZD4320]; conditions: max 1 µM
In short: as §1

Gemcitabine = compound: Nc1ccn([C@@H]2O[C@H](CO)[C@@H](O)C2(F)F)c(=O)n1 [Gemcitabine]; conditions: max 0.3 µM
In short: as §1

[1] = compound: O=C(Nc1ccc2[nH]nc(-c3ccncc3)c2c1)[C@@H]1CCN(CC(=O)N2CCN(c3ccc(-c4ncccn4)cc3)CC2)C1; conditions: max 5 µM
In short: as §1

Paclitaxel = compound: CC(=O)O[C@H]1C(=O)[C@@]2(C)[C@H]([C@H](OC(=O)c3ccccc3)[C@]3(O)C[C@H](OC(=O)[C@H](O)[C@@H](NC(=O)c4ccccc4)c4ccccc4)C(C)=C1C3(C)C)[C@]1(OC(C)=O)CO[C@@H]1C[C@@H]2O [Paclitaxel]; conditions: max 3 µM
In short: as §1

Venetoclax = compound: CC1(C)CCC(CN2CCN(c3ccc(C(=O)NS(=O)(=O)c4ccc(NCC5CCOCC5)c([N+](=O)[O-])c4)c(Oc4cnc5[nH]ccc5c4)c3)CC2)=C(c2ccc(Cl)cc2)C1 [Venetoclax]; conditions: max 1 µM
In short: as §1

SN-38 = compound: CCc1c2c(nc3ccc(O)cc13)-c1cc3c(c(=O)n1C2)COC(=O)[C@]3(O)CC [SN-38]; conditions: max 0.3 µM
In short: as §1

AZD1390 = compound: CC(C)n1c(=O)n(C)c2cnc3cc(F)c(-c4ccc(OCCCN5CCCCC5)nc4)cc3c21 [AZD1390]; conditions: max 0.3 µM
In short: as §1

Cell Line: HCT-116 (Colorectal Carcinoma)
- IC50, cell viability 72 h (Selumetinib): 2500 nM
- IC50, cell viability 72 h (Savolitinib): > 1000 nM
- IC50, cell viability 72 h (Crizotinib): 2760 nM
- IC50, cell viability 72 h (Taselisib): 2170 nM
- IC50, cell viability 72 h (Dasatinib): > 2000 nM
- IC50, cell viability 72 h (SG3199): > 1 nM
- IC50, cell viability 72 h (SRA737): > 10 µM
- IC50, cell viability 72 h (Olaparib): > 10 µM
- IC50, cell viability 72 h (5-Fluorouracil): 10.6 µM
- IC50, cell viability 72 h (Prexasertib): 635 nM
- IC50, cell viability 72 h (AZD5363): > 10 µM
- IC50, cell viability 72 h (AZD2811): > 1000 nM
- IC50, cell viability 72 h (Etoposide): 5.46 µM
- IC50, cell viability 72 h (Palbociclib): 8.69 µM
- IC50, cell viability 72 h (Trametinib): 16.3 nM
- IC50, cell viability 72 h (Doxorubicin): 218 nM
- IC50, cell viability 72 h (MK-2206): > 10 µM
- IC50, cell viability 72 h (AZD6738): 6.97 µM
- IC50, cell viability 72 h (Gefitinib): > 10 µM
- IC50, cell viability 72 h (Alisertib): 1070 nM
- IC50, cell viability 72 h (AZD8186): > 10 µM
- IC50, cell viability 72 h (Lapatinib): > 10 µM
- IC50, cell viability 72 h (AZD5153): 244 nM
- IC50, cell viability 72 h (AZD1775): 1960 nM
- IC50, cell viability 72 h (Carboplatin): > 10 µM
- IC50, cell viability 72 h (AZD0156): > 3000 nM
- IC50, cell viability 72 h (AZD7648): > 10 µM
- IC50, cell viability 72 h (AZD5991): > 1000 nM
- IC50, cell viability 72 h (AZD4320): > 1000 nM
- IC50, cell viability 72 h (Gemcitabine): 13.1 nM
- IC50, cell viability 72 h [1]: 129 nM
- IC50, cell viability 72 h (Paclitaxel): 3.24 nM
- IC50, cell viability 72 h (Venetoclax): > 1000 nM
- IC50, cell viability 72 h (SN-38): 19 nM
- IC50, cell viability 72 h (AZD1390): > 300 nM

Cell Line: HLE (Hepatocellular Carcinoma)
- IC50, cell viability 72 h (Selumetinib): > 10000 nM
- IC50, cell viability 72 h (Savolitinib): > 1000 nM
- IC50, cell viability 72 h (Crizotinib): > 10000 nM
- IC50, cell viability 72 h (Taselisib): > 10000 nM
- IC50, cell viability 72 h (Dasatinib): > 2000 nM
- IC50, cell viability 72 h (SG3199): > 1 nM
- IC50, cell viability 72 h (SRA737): > 10 µM
- IC50, cell viability 72 h (Olaparib): > 10 µM
- IC50, cell viability 72 h (5-Fluorouracil): > 20 µM
- IC50, cell viability 72 h (Prexasertib): 107 nM
- IC50, cell viability 72 h (AZD5363): > 10 µM
- IC50, cell viability 72 h (AZD2811): > 1000 nM
- IC50, cell viability 72 h (Etoposide): > 10 µM
- IC50, cell viability 72 h (Palbociclib): > 10 µM
- IC50, cell viability 72 h (Trametinib): > 1000 nM
- IC50, cell viability 72 h (Doxorubicin): 426 nM
- IC50, cell viability 72 h (MK-2206): > 10 µM
- IC50, cell viability 72 h (AZD6738): 4.91 µM
- IC50, cell viability 72 h (Gefitinib): > 10 µM
- IC50, cell viability 72 h (Alisertib): 2230 nM
- IC50, cell viability 72 h (AZD8186): > 10 µM
- IC50, cell viability 72 h (Lapatinib): > 10 µM
- IC50, cell viability 72 h (AZD5153): > 1000 nM
- IC50, cell viability 72 h (AZD1775): 625 nM
- IC50, cell viability 72 h (Carboplatin): > 10 µM
- IC50, cell viability 72 h (AZD0156): > 3000 nM
- IC50, cell viability 72 h (AZD7648): > 10 µM
- IC50, cell viability 72 h (AZD5991): > 1000 nM
- IC50, cell viability 72 h (AZD4320): > 1000 nM
- IC50, cell viability 72 h (Gemcitabine): 114 nM
- IC50, cell viability 72 h [1]: > 5000 nM
- IC50, cell viability 72 h (Paclitaxel): 60.3 nM
- IC50, cell viability 72 h (Venetoclax): > 1000 nM
- IC50, cell viability 72 h (SN-38): 14.3 nM
- IC50, cell viability 72 h (AZD1390): > 300 nM
